Here are results for 18 molecules from US7635664B2, “Herbicidal substituted benzoylpyrazoles” (Bayer CropScience AG, priority 2001, dated 2009).

The subject of data set [1] is weeds. The experiment in a line: Post-emergence test (Example B), weeds. In kind it is in vivo. The conditions noted are these: test plants of a height of 5-15 cm sprayed; rated after three weeks as % damage vs untreated control. The protocol: (§1) To produce a suitable preparation of active compound, 1 part by weight of active compound is mixed with the stated amount of solvent, the stated amount of emulsifier is added and the concentrate is diluted with water to the desired concentration.
Test plants of a height of 5-15 cm are sprayed with the preparation of active compound such that the particular amounts of active compound desired are applied per unit area. The concentration of the spray liquor is chosen such that the particular amounts of active compound desired are applied in 1000 l of water/ha.
After three weeks, the degree of damage to the plants is rated in % damage in comparison to the development of the untreated control.
The figures denote: • 0%=no effect (like untreated control) • 100%=total destruction

The subject of data set [2] is weeds. The experiment in a line: Pre-emergence test (Example A), weeds. It is filed as in vivo. The conditions noted are these: soil sprayed 24 hours after sowing; rated after three weeks as % damage vs untreated control. The protocol: as §1
Seeds of the test plants are sown in normal soil. After 24 hours, the soil is sprayed with the preparation of active compound such that the particular amount of active compound desired is applied per unit area. The concentration of active compound in the spray liquor is chosen such that the particular amount of active compound desired is applied in 1000 liters of water per hectare.
After three weeks, the degree of damage to the plants is rated in % damage in comparison to the development of the untreated control. The figures denote: • 0%=no effect (like untreated control) • 100%=total destruction

A short description of data set [3]: logP determination by HPLC on reversed-phase column, acidic range. In kind it is physicochemical. The note with it: for logP / logP a): marked a): acidic range, 43° C.; for logP: 0.1% aqueous phosphoric acid/acetonitrile gradient, reversed-phase C 18 HPLC; for logP a): 0.1% aqueous phosphoric acid, acetonitrile gradient. An excerpt:
(a) Mobile phases for the determination in the acidic range: 0.1% aqueous phosphoric acid, acetonitrile; linear gradient from 10% acetonitrile to 90% acetonitrile—the corresponding measurement results in Table 1 are marked ^a).

As a reminder, the chromatographic logP is a lipophilicity value derived from retention on a column. Lower therefore signals a more hydrophilic compound. Consider `CCn1ncc(C(=O)c2ccc(Cl)c(NC(=O)N3CCN(C)C3=O)c2Cl)c1O` [Example 1, N-[2,6-dichloro-3-[(1-ethyl-5-hydroxy-1H-pyrazol-4-yl)-carbonyl]-phenyl]-3-methyl-2-oxo-1-imidazolidinecarboxamide], for which, in the data set with weeds [1], the “activity against weeds, post-emergence” value is recorded as “strong activity”. Also, in the data set on weeds [2], the “activity against weeds, pre-emergence” value was “strong activity”. This molecule yielded a chromatographic logP in data set [3] (reversed-phase C18 HPLC column, pH=2.3) of 1.58.

Turning to `CCn1ncc(C(=O)c2ccc(Cl)c(NC(=O)N(C)OC)c2Cl)c1O` [Example 2], the “activity against weeds, post-emergence” value with weeds [1] was “strong activity”. Moreover, the “activity against weeds, pre-emergence” value with weeds [2] was “strong activity”. Also, the logP result in data set [3] was “(I-2) logP = 1,39^a)”.

As for `CCn1ncc(C(=O)c2ccc(Cl)c(NC(=O)N3CCOCC3)c2Cl)c1O` [Example 6], the “activity against weeds, pre-emergence” value in the data set on weeds [2] is “strong activity”. For the same molecule, the logP result in data set [3] is listed as “(I-2) logP = 1.13^a)”.

In the case of `CN1CCN(C(=O)Nc2c(Cl)ccc(C(=O)c3cnn(C)c3O)c2Cl)C1=O` [Example 4], in the data set on weeds [2], the “activity against weeds, pre-emergence” value is “strong activity”. In addition, the logP result in data set [3] is “(I-2) logP = 1.32^a)”.

Consider `CCn1nc(C)c(C(=O)c2ccc(Cl)c(NC(=O)N3CCCCO3)c2Cl)c1O` [Example 183], for which, in data set [3], the logP entry was “(I-2) logP = 1.53^a)”.

As to `CCn1ncc(C(=O)c2ccc(Cl)c(NC(=O)NCC3CCCO3)c2Cl)c1O` (stereo not drawn) [Example 105], in data set [3], the logP result is given as “(I-2) logP = 1.33^a)”.

`COC(=O)c1ccc(Cl)c(NC(=O)NN(C)C)c1Cl` [IIIa-7]: the “logP a)” value in data set [3] was “logP = 1.64^a)”.

`Cn1ncc(C(=O)c2ccc(Cl)c(NC(=O)N3CCOCC3)c2Cl)c1O` [Example 10]: the logP entry in data set [3] is “(I-2) logP = 0.82^a)”.

For the molecule `CCn1ncc(C(=O)c2ccc(Cl)c(NC(=O)N3CCCO3)c2Cl)c1O` [Example 162], the logP result in data set [3] is “(I-2) logP = 1.38^a)”.

On to `CCn1ncc(C(=O)c2ccc(Cl)c(NC(=O)N3CCCN(C(C)C)C3=O)c2Cl)c1O` [Example 101], for which the logP result in data set [3] is “(I-2) logP = 2.42^a)”.

As to `Cn1ncc(C(=O)c2ccc(Cl)c(NC(=O)N3CCCCO3)c2Cl)c1O` [Example 182], the logP result in data set [3] is “(I-2) logP = 1.36^a)”.

In the case of `CCn1ncc(C(=O)c2ccc(Cl)c(NC(=O)NN3CCOCC3)c2Cl)c1O` [Example 14], in data set [3], the logP entry was “(I-2) logP = 1.25^a)”.

With `CON(C)C(=O)Nc1c(Cl)ccc(C(=O)c2cnn(C)c2O)c1Cl` [Example 3], the “activity against weeds, pre-emergence” value in the data set with weeds [2] is given as “strong activity”. Besides, the logP result in data set [3] was “(I-2) logP = 1.13^a)”.

Consider `CONC(=O)Nc1c(Cl)ccc(C(=O)c2cnn(C)c2O)c1Cl` [Example 109], for which the logP entry in data set [3] is recorded as “(I-2) logP = 0.72^a)”.

Regarding `COC(=O)c1ccc(C(F)(F)F)cc1NC(=O)N1CCN(C)C1=O` [IIIa-10], in data set [3], the “logP a)” value is on record as “logP = 2.76^a)”.

For the molecule `Cn1ncc(C(=O)c2ccc(Cl)c(NC(=O)N3CCCC3)c2Cl)c1O` [Example 24], the logP entry in data set [3] is given as “(I-2) logP = 1.18^a)”.

In the case of `CCn1ncc(C(=O)c2ccc(Cl)c(NC(=O)N=c3sccn3CC)c2Cl)c1O` [Example 179], the logP entry in data set [3] was “(I-2) logP = 1.72^a)”.

On to `CCn1ncc(C(=O)c2ccc(Cl)c(NC(=O)N3CCCN(C)C3=O)c2Cl)c1O` [Example 5], for which the “activity against weeds, post-emergence” value in the data set on weeds [1] is reported as “strong activity”. Besides, the “activity against weeds, pre-emergence” value in the data set on weeds [2] is listed as “strong activity”. Further, in data set [3], the logP entry was “(I-2) logP = 1.83^a)”.
